Assay: Stability to intense pulsed light (IPL) flashes, monitored by absorbance spectrum
Format: physicochemical
Conditions: ten pulses at maximum fluence of the flash lamp, visible spectral range
Experimental: A small study, on one subject, was conducted to see whether encapsulation of the sodium-copper-chlorophyllin within the liposome enhanced skin tanning, i.e., increased penetration and bioavailability of copper to the melanin-producing enzyme, […]. […] Three areas on the back received 1.0 MED simulated solar radiation: one area had received no treatment, one area had been pre-treated with the gel without liposome and the third area was treated with the liposome gel. An expert blinded grader scored the resulting skin tanning at 10 days after irradiation, using the Degree of Tanning scale 0 to 10 (darkest). […] Controlled dissociation of the sodium-copper-chlorophyllin complex is possible, in part because of the high stability of this complex. Normally, inorganic and organic copper salts, including copper-peptides, are not very stable with regard to binding copper. The inherent stability and lack of reactivity of sodium-copper-chlorophyllin is essential for this process to work successfully. […] Stability was monitored by measurement of the dye's full absorbance spectrum, since degradation of the dye would be detectable as changes in the absorbance spectrum.

sodium-copper-chlorophyllin [sodium-copper-chlorphyllin]
absorbance spectrum after IPL flashes: remained unchanged

Reference: patent US20080317836A1, “Topical compositions for anti-aging skin treatment” (DISCOVERY PARTNERS LLC, priority 2007, published 2008)
